{"source": "patent US7432392B2", "about": "“Ester derivatives and medical use thereof” (Japan Tobacco Inc., priority 2003, dated 2008)", "key": {"[1]": {"experiment": "Metabolic stability test in liver S9 (hamster)", "assay_type": "in vitro ADME", "conditions": "Hamster liver S9, 2 mg protein/mL, 37° C.", "protocol": "(§1) Human and hamster liver S9 (final concentration: 2 mg protein/mL), and human and hamster small intestine S9 (final concentration: 2 mg protein/mL) were each suspended in 100 mM potassium phosphate buffer (pH 7.4, containing β-nicotinamide adenine dinucleotide phosphate: 1.3 mM, D-glucose-6-phosphate: 3.3 mM, magnesium chloride: 3.3 mM, and glucose-6-phosphate dehydrogenase: 0.4 U/mL). The suspensions were mixed with a solution of a sample (Example 1) in DMSO. The solutions were incubated at 37° C. for 0, 10 and 60 minutes, and an organic solvent was added thereto. The solutions were centrifuged, and the concentration of the sample (unchanged form) in the supernatant was determined by high performance liquid chromatography/mass spectrometry (LC/MS). Based on the data obtained, remaining rate (%) was calculated according to the following equation. Remaining rate(%)=amount of sample 10 or 60 minutes after incubation/amount of sample at zero time after incubation×100"}, "[2]": {"experiment": "Metabolic stability test in liver S9 (human)", "assay_type": "in vitro ADME", "conditions": "Human liver S9, 2 mg protein/mL, 37° C.", "protocol": "as §1"}, "[3]": {"system": "apolipoprotein B secretion from HepG2 cells", "experiment": "Inhibition of apolipoprotein B secretion from HepG2 cells", "assay_type": "cell-based", "conditions": "Homo sapiens, about 20 hours incubation, apo B in supernatant by ELISA", "protocol": "HepG2 cells were suspended in Dulbecco's Modified Eagle's Medium (DMEM) (containing 10% fetal bovine serum, 100 units/mL penicillin and 100 μg/mL streptomycin), and placed on a 96-well plate (4×10^4 cells/well), then incubated for 24 hours. After removal of the medium, DMEM was replaced by a medium containing a sample dissolved in DMSO or a medium containing DMSO (concentration of DMSO: 0.5%) and incubation was further performed for about 20 hours, after which the supernatant was recovered, and concentration of apo B in the supernatant was assayed by Enzyme-Linked Immunosorbent Assay (ELISA)\nELISA was carried out as follows. Anti-human apo B monoclonal antibody (0.5 μg/well) diluted with a 50 mM sodium carbonate/sodium bicarbonate buffer was placed in a 96-well plate for ELISA, and allowed to stand at room temperature for 15 hours. After washing the plate, a blocking solution (250 μL/well) was placed in the well, and allowed to stand at room temperature for 1.5 hours. After washing the plate, a standard and a sample (100 μL/well) were placed in the well and allowed to stand at room temperature for 1.5 hours. The standard was prepared by adjusting the concentration of the purified human apo B with the DMEM to 0 to 250 ng/mL. After washing the plate, an anti-human apo B polyclonal antibody labeled with a horse radish peroxidase which was diluted in 1:1000 with DEME (100 μL/well) was added, and allowed to stand at room temperature for 1.5 hours. After washing the plate, 2,2-azinobis(3-ethylbenzothiazoline-6-sulfonic acid) solution (100 μL/well) was placed in the well, and allowed to stand at room temperature for 0.5 hour. The reaction was stopped by addition of 2% oxalic acid (100 μL/well), and absorbency at 405 nm was measured. Concentration of apo B in the sample was calculated on the basis of a standard curve of the standard. Inhibition rate (%) was calculated from the assayed values in accordance with the following equation. Inhibition rate (%)=100×(1 minus (concentration of apo B in sample group/concentration of apo B in DMSO group).\nBased on the above equation, 50% inhibition concentration (IC50) was determined."}}, "note": "pIC50: −log10 of the molar value.", "data": [{"smiles": "CCOC(=O)C(COC(=O)Cc1ccc(NC(=O)c2ccccc2-c2ccc(C(F)(F)F)cc2)c(OC(C)=O)c1)(C(=O)OCC)c1ccccc1", "note": "[Example 1, 2-(2-{3-acetoxy-4-[(4′-trifluoromethyl-biphenyl-2-carbonyl)amino]phenyl}acetoxymethyl)-2-phenylmalonic acid diethyl ester]", "values": [{"measurement": "Remaining rate (%) after 10 minutes", "setting": "[1]; 10 minutes", "result": 1.6, "unit": "%"}, {"measurement": "Remaining rate (%) after 60 minutes", "setting": "[1]; 60 minutes", "result": 0.0, "unit": "%"}, {"measurement": "Remaining rate (%) after 10 minutes", "setting": "[2]; 10 minutes", "result": 6.2, "unit": "%"}, {"measurement": "Remaining rate (%) after 60 minutes", "setting": "[2]; 60 minutes", "result": 1.8, "unit": "%"}, {"measurement": "pIC50", "setting": "[3]", "result": "> 6.00"}]}]}
